Measurements: the NIST ThermoML archive (doi:10.1021/je400056z)

Assay: xn = mol fraction of the nth substance listed
Details: Liquid, Vibrating tube method

CCCCCCC [heptane] + O=C=O
Details | mass density [kg/m3]
352.3 K, 20004 kPa, x2 = 0.7514 | 694.21
352.3 K, 21007 kPa, x2 = 0.7514 | 699.11
352.3 K, 22009 kPa, x2 = 0.7514 | 703.64
352.3 K, 22989 kPa, x2 = 0.7514 | 707.97
352.3 K, 24025 kPa, x2 = 0.7514 | 712.39
352.3 K, 24893 kPa, x2 = 0.7514 | 715.94
352.44 K, 4005 kPa, x2 = 0.0218 | 638.36
352.44 K, 5013 kPa, x2 = 0.0218 | 639.84
352.44 K, 6005 kPa, x2 = 0.0218 | 641.24
352.44 K, 7000 kPa, x2 = 0.0218 | 642.57
352.44 K, 8008 kPa, x2 = 0.0218 | 643.95
352.44 K, 9006 kPa, x2 = 0.0218 | 645.27
352.44 K, 10002 kPa, x2 = 0.0218 | 646.56
352.44 K, 11002 kPa, x2 = 0.0218 | 647.79
352.44 K, 12000 kPa, x2 = 0.0218 | 649.14
352.44 K, 13002 kPa, x2 = 0.0218 | 650.25
352.44 K, 13998 kPa, x2 = 0.0218 | 651.46
352.44 K, 15011 kPa, x2 = 0.0218 | 652.7
352.44 K, 16006 kPa, x2 = 0.0218 | 653.84
352.44 K, 17009 kPa, x2 = 0.0218 | 654.98
352.44 K, 17993 kPa, x2 = 0.0218 | 656.08
352.44 K, 18998 kPa, x2 = 0.0218 | 657.17
352.44 K, 20004 kPa, x2 = 0.0218 | 658.27
352.44 K, 21002 kPa, x2 = 0.0218 | 659.34
352.44 K, 22002 kPa, x2 = 0.0218 | 660.39
352.44 K, 23003 kPa, x2 = 0.0218 | 661.43
352.44 K, 23998 kPa, x2 = 0.0218 | 662.47
352.44 K, 25014 kPa, x2 = 0.0218 | 663.51
352.51 K, 9000 kPa, x2 = 0.5085 | 656.72
352.51 K, 10004 kPa, x2 = 0.5085 | 660.28
352.51 K, 11004 kPa, x2 = 0.5085 | 663.66
352.51 K, 12007 kPa, x2 = 0.5085 | 666.9
352.51 K, 13000 kPa, x2 = 0.5085 | 670.03
352.51 K, 14003 kPa, x2 = 0.5085 | 673
352.51 K, 15002 kPa, x2 = 0.5085 | 675.9
352.51 K, 15998 kPa, x2 = 0.5085 | 678.62
352.51 K, 17010 kPa, x2 = 0.5085 | 681.33
352.51 K, 18003 kPa, x2 = 0.5085 | 683.88
352.51 K, 19006 kPa, x2 = 0.5085 | 686.38
352.51 K, 20013 kPa, x2 = 0.5085 | 688.8
352.51 K, 21004 kPa, x2 = 0.5085 | 691.17
352.51 K, 22004 kPa, x2 = 0.5085 | 693.46
352.51 K, 23002 kPa, x2 = 0.5085 | 695.71
352.51 K, 24007 kPa, x2 = 0.5085 | 697.91
352.51 K, 25011 kPa, x2 = 0.5085 | 700.05
352.54 K, 15235 kPa, x2 = 0.9496 | 511.88
352.54 K, 15989 kPa, x2 = 0.9496 | 538.42
352.54 K, 17004 kPa, x2 = 0.9496 | 568.84
352.54 K, 18001 kPa, x2 = 0.9496 | 594.2
352.54 K, 18993 kPa, x2 = 0.9496 | 616.18
352.54 K, 20006 kPa, x2 = 0.9496 | 635.42
352.54 K, 20999 kPa, x2 = 0.9496 | 652.26
352.54 K, 22018 kPa, x2 = 0.9496 | 667.75
352.54 K, 22994 kPa, x2 = 0.9496 | 681.03
352.54 K, 24034 kPa, x2 = 0.9496 | 693.84
362.09 K, 12975 kPa, x2 = 0.7514 | 586.38
362.09 K, 14000 kPa, x2 = 0.7514 | 602.3
362.09 K, 14863 kPa, x2 = 0.7514 | 613.15
362.09 K, 16010 kPa, x2 = 0.7514 | 625.83
362.09 K, 17009 kPa, x2 = 0.7514 | 635.46
362.09 K, 18017 kPa, x2 = 0.7514 | 644.3
362.09 K, 19007 kPa, x2 = 0.7514 | 652.35
362.09 K, 20005 kPa, x2 = 0.7514 | 659.83
362.09 K, 21006 kPa, x2 = 0.7514 | 666.86
362.09 K, 22003 kPa, x2 = 0.7514 | 672.93
362.09 K, 22995 kPa, x2 = 0.7514 | 679.37
362.09 K, 24000 kPa, x2 = 0.7514 | 685.55
